Laboratory results as given in patent US10463609B2, “Dendrimers for sustained release of compounds” (WAYNE STATE UNIVERSITY, priority 2007, dated 2019).

Legend:
RCS rats [1] = test: Electroretinography after single intravitreal injection of D-FA or free FA in RCS rats; format: in vivo, rat; conditions: for ERG a-wave amplitude change, OD / ERG a-wave amplitude change, OS / ERG b-wave amplitude change, OD / ERG b-wave amplitude change, OS: Mean±Standard Error
Protocol: Neuroprotective effects of dendrimer-FA (D-FA) nanodevices were determined as follows. The neuroprotective effects of intravitreally-injected D-FA nanodevices to free-FA injections and IDDIs that release free-FA at a sustained daily rate were compared. […] Here the 1 μg and 3 μg refer to the FA content in D-FA. ONL cell densities were higher for D-FA than those measured for IDDIs and free FA injections.
The efficacy was analyzed using electroretinography (ERG) and histology.
Thirty albino RCS rats aged five weeks were divided into six equal groups. The experiments were terminated at nine weeks. Thus, the efficacy was evaluated over the four-week peak period of retinal degeneration in the RCS rats. The groups were: • 1. intravitreal injection of 3.0 μg dendrimer-conjugated fluocinolone acetonide (FA) in 1.0 μL of Phosphate Buffered Solution (PBS); • 2. intravitreal injection of 1.0 μg dendrimer-conjugated FA in 1.0 μL of PBS; • 3. intravitreal injection of 3.0 μg FA in 1.0 μL of PBS; • 4. intravitreal injection of 1.0 μg FA in 1.0 μL of PBS; • 5. intravitreal injection of 1 μL of PBS (vehicle control); • 6. light-exposed unoperated controls.

[2] = Drug release from PLGA microspheres; format: physicochemical; conditions: ~5-10 μm PLGA microspheres containing 5% by mass of FA
Protocol: Drug release from PLGA microspheres was studied as follows. The drug release kinetics for free fluocinolone acetonide was analyzed for the same PLGA microspheres. For ˜5 -10 μm microspheres (containing 5% by mass of FA), the release was ˜0.5 μg/day (average) for the first thirty days, with a cumulative release of ˜30% in one month. There was 3% initial burst in the first three days. For dendrimer-FA conjugates, the initial burst may be capable of elimination due to their relatively larger size.

[3] = Water solubility of the conjugate; format: physicochemical
Source text: The glutaric acid spacer relieves the steric hindrance on the dendrimer surface, enabling intracellular drug release.
The filtrate was dialysed against DMSO for three days by replacing DMSO after each day (dialysis membrane cutoff 1000 Da) to remove unreacted compounds. The dialyzed product was dried under vacuum to obtain conjugate. ^1H-NMR was used to characterize the conjugate.

RCS rats [4] = test: Quantitative histology of ONL and INL cells, FA sustained-release intravitreal drug delivery implants (IDDIs) in RCS rats; format: in vivo, rat
Source text: According to this Example, the steroid fluocinolone acetonide (FA) was highly neuroprotective in slowing the retinal degeneration of RCS rats when delivered via sustained-release intravitreal drug delivery implants (IDDIs).

RCS rats [5] = test: ERG b-wave amplitudes, FA IDDIs in RCS rats; format: in vivo, rat
Protocol: In other experiments, fluocinolone acetonide preserved electroretinogram b-wave amplitudes in treated eyes. The ONL data were consistent with ERG findings in the same animals (FIG. 9A). […] Although mean b-wave amplitude values in the eyes treated with FA 0.5 μg/day were quantitatively lower than the values in the eyes treated with FA 0.2 μg/day, there was no statistically significant difference between them (p=0.113).
Quantitatively, the left eye-ERG b-wave amplitudes of the FA 0.2 μg/day-treated group at the four-week time point were greater than those of control right and left eyes and placebo group-right and left eyes. […] The fellow-eye effects were attributed to drug-crossover. This is commonly seen in small mammals in which the volume of distribution is small.

[6] = system: activated retinal microglial cells; test: Quantitative histology of activated retinal microglial cells by ED-1 immunolabelling, FA IDDIs in RCS rats; format: in vivo, rat; conditions: p<0.001
Protocol: FA suppressed neuroinflammation in RCS rats. In examining the mechanism of action of FA in preserving the ONL and ERG in the RCS rat, quantitative histological analysis of activated retinal microglial cells were performed using ED-1 immunolabelling. The photoreceptor layer and outer debris zone in RCS rats contain damaged lipid membranes that amplified photoreceptor damage by activating microglia to become phagocytic and release toxic substances such as tumor-necrosis factor alpha (TNF-α).

[7] = system: Royal College of Surgeons retinal degeneration model (RCS) rats; test: Retinal biodistribution after intravitreal injection, epi-fluorescence histology of retinal cryosections, RCS rats; format: in vivo, rat
Source text: Retinal biodistribution of free-FITC and dendrimer-conjugated FITC (D-FITC) in healthy Sprague-Dawley (SD) and Royal College of Surgeons retinal degeneration model (RCS) rats with active neuroinflammation was studied. Epi-fluorescence histology from retinal cryosections performed 24-hours and ten days after intravitreal injection is shown in […] as follows.
The first set of results is shown in FIGS. 10A-10F, epi-fluorescence histology from retinal cryosections performed twenty four hours and ten days after intravitreal injection, showing (FIG. 10A) D-FITC distribution in normal SD rats at twenty four hours, and (FIG. 10B) D-FITC distribution in the RCS retinal neurodegeneration model at twenty four hours. The concentration of D-FITC within the outer nuclear layer (denoted by *) and debris zone are significant findings.
The D-FITC localization in the outer-retina was further analyzed by immunohistochemical labeling for activated microglial cells, astrocytes, and Mueller cells and the photoreceptors (as shown in FIGS. 11A-11D, FIGS. 12A-12B, FIGS. 13A-13D, FIG. 14, and FIGS. 15A-15B). […] There was minimal accumulation in the other cells in the inner and outer retina. FIGS. 11A-11D show Microglial uptake of D-FITC. (FIG. 11A) ED-1 immuno-histochemical labeling of inner-retinal microglial cells; (FIG. 11B) D-FITC uptake within inner retinal microglia (60×); (FIG. 11C) outer retinal ED-1 labeled activated microglia; and (FIG. 11D) D-FITC uptake within activated microglia.

[8] = 1.0 μg intravitreal in 1.0 μL PBS, end of study vs beginning
[9] = 3.0 μg intravitreal in 1.0 μL PBS, end of study vs beginning
[10] = FA 0.5 μg/day IDDI, treated eyes, four-week study

## CC1(C)O[C@@H]2C[C@H]3[C@@H]4C[C@H](F)C5=CC(=O)C=C[C@]5(C)[C@@]4(F)[C@@H](O)C[C@]3(C)[C@]2(C(=O)CO)O1 [FA, fluocinolone acetonide]
RCS rats [1]; [8]
  ERG a-wave amplitude change, OD: −41.9 ± 13.4%
  ERG a-wave amplitude change, OS: −47.8 ± 7.7%
  ERG b-wave amplitude change, OD: −64.2 ± 8.6%
  ERG b-wave amplitude change, OS: −55.6 ± 3.6%
RCS rats [1]; 3.0 μg intravitreal in 1.0 μL PBS, end of study (9 weeks of age) vs beginning (5 weeks), loss (−)/gain (+) from initial amplitude
  ERG a-wave amplitude change, OD: −12.5 ± 28.8%
RCS rats [1]; [9]
  ERG a-wave amplitude change, OS: −10.5 ± 30.1%
  ERG b-wave amplitude change, OD: −42.6 ± 3.3%
  ERG b-wave amplitude change, OS: −40.8 ± 3.5%
RCS rats [1]; at nine weeks of age, right vs left eyes
  end-point ERG a-wave (photoreceptor response) amplitudes: not true
[2]; first thirty days
  release rate (average): ~0.5 µg/day
[2]; first three days
  initial burst: 3%
[2]; in one month
  cumulative release: ~30%
[3]
  solubility in water: not water soluble at comparable concentrations
RCS rats [4]; FA 0.2 μg/day IDDI, treated eyes, four-week study
  ONL cell densities relative to inactive IDDI group: 4.85±0.24 times
RCS rats [4]; FA 0.2 μg/day IDDI, treated eyes, four-week study, nine-week RCS rats
  ONL cell densities relative to non-surgical controls: 2.38±0.12 times
RCS rats [4]; [10]
  ONL counts relative to eyes that received inactive IDDIs: 3.56±0.17 times
  ONL counts relative to non-surgical control eyes: 1.78±0.21 times
RCS rats [4]; FA 0.2 and 0.5 μg/day IDDIs vs inactive implants and non-surgical controls
  inner nuclear layer cell counts between groups: No significant differences
RCS rats [5]; 0.2 μg/day and 0.5 μg/day FA IDDIs, p<0.001
  mean four-week postoperative ERG b-wave amplitudes, treated eyes: significantly greater than those of the unoperated control and placebo-treated eyes
RCS rats [5]; FA 0.2 μg/day IDDI group vs placebo-treated or control eyes
  mean ERG b-wave amplitudes of left (fellow) eyes: No statistically significant differences
RCS rats [5]; FA 0.5 μg/day IDDI group, four weeks, cross-over effect
  mean ERG b-wave amplitudes of left (fellow) eyes: significantly different from those of right and left eyes of unoperated control animals
[6]; FA 0.2 μg/day IDDI
  activated microglial cell densities in the debris layer vs eyes with inactive IDDIs: nine-fold decrease
  activated microglial cell densities in the debris layer vs non-surgical control eyes: five-fold decrease
[6]; FA 0.5 μg/day IDDI
  debris zone activated microglial density vs eyes with inactive IDDIs: seven times lower
  debris zone activated microglial density vs non-surgical control eyes: four times lower

## fluorescein isothiocyanate [Free-FITC]
[7]; RCS rats, 24 hours after intravitreal injection
  retinal distribution at 24 hours: uniformly distributed
[7]; RCS rats, ten days after intravitreal injection
  retinal retention at ten days: cleared from the retina
[7]; after intravitreal injection, 24 hours, similar at ten days
  FITC fluorescence in the retinal pigment epithelium (RPE): No FITC fluorescence was observed
